Measured values from paper PMC9450014, “The evaluation of ADME and pharmacokinetic properties of decoquinate derivatives for the treatment of malaria” (Frontiers in Pharmacology, 2022).

How the values were obtained:
Type in all cases: in vitro ADME
[1] = Plasma stability; conditions: human plasma
Description: Stock solutions of compounds in DMSO were used to spike pooled human plasma. Samples were transferred in duplicate to 6 different wells of a 96-deep well plate. An aliquot of each sample was immediately quenched with ice cold acetonitrile containing the internal standard carbamazepine (0.1 μM), after which the plate was incubated in a water bath (37°C for 1 h). Aliquots of samples were removed at 5, 15, 40, 60, and 180 min and quenched with ice cold acetonitrile. After samples of the final time point were precipitated, the supernatant was transferred to a round bottom 96-well plate for analysis by LC-MS/MS using a reverse phase Gemini NX-C18 column (5 μM, 2.1 mm × 50 mm) with a Shimadzu HPLC coupled with an AB Sciex 3200 Q TRAP MS). The peak area ratios were used to calculate the amount of parent compound remaining and t1/2 in plasma, using the following equations.
% Parent remaining % Parent= Normalised peak area of sample at timepoint/Normalised peak area of sample at t=0 x 100
Predicted t1/2 t1/2= −0.693/λ Where λ is the slope of the Ln % parent remaining vs. time curve.

[2] = Plasma protein binding (ultracentrifugation); conditions: pooled plasma; human plasma; read-out: Bound to plasma proteins (converted)
Description: (§1) Plasma protein binding was determined in pooled human plasma using an ultracentrifugation method. Stock solutions of test compounds were diluted in phosphate buffer and spiked into plasma in deep well 96-well plates. An aliquot of each compound was immediately precipitated with ice cold acetonitrile containing the internal standard carbamazepine (0.1 μM). These served as total concentration samples. After incubation in a water bath (37°C for 1 h), samples were transferred to ultracentrifuge tubes in duplicate and centrifuged for 4 h at 37°C and 30,000 g (Optima L-80XP, Beckman). Following centrifugation, the supernatant was transferred to the plate containing the total concentration samples and precipitated with ice cold acetonitrile containing the internal standard. Samples were analysed by LC-MS/MS (Shimadzu HPLC coupled with an AB Sciex 3200 Q TRAP MS). Non-specific binding in mouse liver microsomes (MLM) and human liver microsomes (HLM) were also determined with the ultracentrifugation method. Stock solutions of compounds (10 mM) were added in duplicate to microsome solution (0.5 mg/mL) in phosphate buffer (pH 7.4) to obtain a final drug concentration of 1 μM. The same method as for plasma protein binding was utilized. Analyte concentrations of all compounds were determined via LC-MS/MS (reverse phase Gemini NX-C18 column and Shimadzu HPLC coupled with an AB Sciex 3200 Q TRAP MS).

[3] = Non-specific liver microsomal binding, MLM; conditions: mouse liver microsomes
Description: as §1

Plasma stability (in words) [1]: good plasma stability
Plasma stability (in words) ([1]; listed as RMB-005): relatively stable
half-life ([1]; pooled plasma, 37°C): > 2.5 h
fraction unbound at 1 h [2]: 0.08
Bound to microsomes [3]: 99%
Compound: CCCCCCCCCCOc1cc2c(=O)c(C(=O)NCCOCCO)c[nH]c2cc1OCC [RMB005]
